{"source": "ChEMBL document CHEMBL1201862", "about": "“PubChem BioAssay data set” (2004)", "experiment_in_all_cases": "NCI tumour cell line growth inhibition, 48 h", "key": {"[1]": {"test_system": "BT-549"}, "[2]": {"test_system": "XF498"}, "[3]": {"test_system": "DMS-273"}, "[4]": {"test_system": "DMS-114"}, "[5]": {"test_system": "KM-20L2"}, "[6]": {"test_system": "SNB-78"}, "[7]": {"test_system": "LXFL 529"}, "[8]": {"test_system": "HOP-18"}, "[9]": {"test_system": "RXF 631"}}, "note": "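How tested: cells in 96-well plates exposed to compound for 48 hours at five concentrations. GI50 = concentration required for 50% inhibition of growth.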 The source made the active and inactive calls. Cut-off read from the data, not from the text of the source: active = GI50 up to about 1.1 µM and inactive = higher.", "data": [{"smiles": "CC(NNC(=O)c1ccncc1)c1ccc(Cl)cc1Cl", "note": "(centres undefined)", "values": [{"measurement": "GI50", "setting": "[1]", "result": "> 100 µM (inactive)"}]}, {"smiles": "C=C(COC(C)=O)CC(/C=C(\\C)CCC=C(C)C)OC(C)=O", "note": "(centres undefined)", "values": [{"measurement": "GI50", "setting": "[2]", "result": "47.6 µM (inactive)"}, {"measurement": "GI50", "setting": "[3]", "result": "> 100 µM (inactive)"}, {"measurement": "GI50", "setting": "[4]", "result": "> 100 µM (inactive)"}, {"measurement": "GI50", "setting": "[5]", "result": "> 100 µM (inactive)"}, {"measurement": "GI50", "setting": "[6]", "result": "> 100 µM (inactive)"}, {"measurement": "GI50", "setting": "[7]", "result": "> 100 µM (inactive)"}]}, {"smiles": "CC(C)=CC(=O)C1c2cccc(O)c2C(=O)c2c(O)cc(C)cc21", "note": "(centres undefined)", "values": [{"measurement": "GI50", "setting": "[2]", "result": "1.54 µM (inactive)"}, {"measurement": "GI50", "setting": "[3]", "result": "3.48 µM (inactive)"}, {"measurement": "GI50", "setting": "[4]", "result": "1.79 µM (inactive)"}, {"measurement": "GI50", "setting": "[8]", "result": "2.15 µM (inactive)"}, {"measurement": "GI50", "setting": "[5]", "result": "4.86 µM (inactive)"}, {"measurement": "GI50", "setting": "[6]", "result": "2.86 µM (inactive)"}, {"measurement": "GI50", "setting": "[7]", "result": "2.04 µM (inactive)"}]}, {"smiles": "Cc1ccc(S(=O)(=O)N/N=C2\\CC3CC4CCC2C4C3)cc1", "note": "(centres undefined)", "values": [{"measurement": "GI50", "setting": "[1]", "result": "> 100 µM (inactive)"}]}, {"smiles": "CC(=O)/C(=C/NC(=S)c1ccncc1)C(=O)Nc1ccccc1C", "values": [{"measurement": "GI50", "setting": "[1]", "result": "> 100 µM (inactive)"}]}, {"smiles": "O=C1Nc2ccccc2/C1=C1/Nc2ccccc2/C1=N/OCCO", "values": [{"measurement": "GI50", "setting": "[1]", "result": "50.9 µM (inactive)"}]}, {"smiles": "COC(=O)/C=C1\\C(=O)N(C(C)=O)c2ccccc21", "values": [{"measurement": "GI50", "setting": "[1]", "result": "3.47 µM (inactive)"}]}, {"smiles": "CCN(c1cccc(NC(=S)Nc2ccccc2N(CC)c2cc(-c3ccccc3)no2)c1)c1cc(-c2ccccc2)no1", "values": [{"measurement": "GI50", "setting": "[1]", "result": "> 100 µM (inactive)"}]}, {"smiles": "CCOC(=N)CC(=O)c1ccccc1", "values": [{"measurement": "GI50", "setting": "[2]", "result": "> 100 µM (inactive)"}, {"measurement": "GI50", "setting": "[3]", "result": "> 100 µM (inactive)"}, {"measurement": "GI50", "setting": "[4]", "result": "> 100 µM (inactive)"}, {"measurement": "GI50", "setting": "[8]", "result": "> 100 µM (inactive)"}, {"measurement": "GI50", "setting": "[5]", "result": "> 100 µM (inactive)"}, {"measurement": "GI50", "setting": "[6]", "result": "> 100 µM (inactive)"}, {"measurement": "GI50", "setting": "[7]", "result": "> 100 µM (inactive)"}]}, {"smiles": "CC(C)(O)C1CC(=O)C(C)(C2C(O)CC3(C)C4CC=C5C(CCC(O)C5(C)C)C4(C)C(=O)CC23C)O1", "note": "(centres undefined)", "values": [{"measurement": "GI50", "setting": "[1]", "result": "> 100 µM (inactive)"}]}, {"smiles": "N=C(N)NC1C(O)C(O)C(O)C(NC(=N)N)C1O", "note": "(centres undefined)", "values": [{"measurement": "GI50", "setting": "[1]", "result": "> 100 µM (inactive)"}]}, {"smiles": "COC1OC(COCc2ccc(Cl)cc2)C(OCc2ccc(Cl)cc2)C1O", "note": "(centres undefined)", "values": [{"measurement": "GI50", "setting": "[2]", "result": "3.07 µM (inactive)"}, {"measurement": "GI50", "setting": "[3]", "result": "17.3 µM (inactive)"}, {"measurement": "GI50", "setting": "[4]", "result": "13.7 µM (inactive)"}, {"measurement": "GI50", "setting": "[8]", "result": "12.8 µM (inactive)"}, {"measurement": "GI50", "setting": "[9]", "result": "16.2 µM (inactive)"}, {"measurement": "GI50", "setting": "[5]", "result": "17.3 µM (inactive)"}, {"measurement": "GI50", "setting": "[7]", "result": "18.4 µM (inactive)"}]}, {"smiles": "CC1=NN(c2nc(N)nc(/C(C#N)=C/c3ccccc3O)n2)C(C)(C)C1", "values": [{"measurement": "GI50", "setting": "[1]", "result": "36.2 µM (inactive)"}]}, {"smiles": "CCCCCCC(C)OC(=O)/C=C(\\CC(=O)OC(C)CCCCCC)C(=O)OC(C)CCCCCC", "note": "(centres undefined)", "values": [{"measurement": "GI50", "setting": "[3]", "result": "> 100 µM (inactive)"}, {"measurement": "GI50", "setting": "[4]", "result": "> 100 µM (inactive)"}, {"measurement": "GI50", "setting": "[5]", "result": "> 100 µM (inactive)"}, {"measurement": "GI50", "setting": "[6]", "result": "> 100 µM (inactive)"}, {"measurement": "GI50", "setting": "[7]", "result": "> 100 µM (inactive)"}]}, {"smiles": "Cn1cnc(N)c(N=O)c1=O", "values": [{"measurement": "GI50", "setting": "[1]", "result": "> 10 µM (inactive)"}]}, {"smiles": "O=[N+]([O-])c1cccc2nc3ccccc3c(NCCCCNc3c4ccccc4nc4cccc([N+](=O)[O-])c34)c12", "values": [{"measurement": "GI50", "setting": "[1]", "result": "0.242 µM (active)"}]}, {"smiles": "CC(=O)C1=C(C)N2C(=NC3=C(CCc4ccccc43)C2c2cccc(Br)c2)S1", "note": "(centres undefined)", "values": [{"measurement": "GI50", "setting": "[1]", "result": "> 100 µM (inactive)"}]}]}
